Measured values taken from patent US10954214B2 (Janssen Pharmaceutica NV, priority 2016, dated 2021).

How the values were obtained:
[1] = test system: OCI-Ly3 cells; assay: 4-day proliferation assay, OCI-Ly3; assay type: cell-based, human; conditions: Homo sapiens, 96 h, 4 days incubation, CellTiterGLO, read-out: Anti-proliferation: OCI-LY-3 IC50
Protocol: (§1) To assess anti-proliferative effects, MALT1 inhibitor test compounds were tested in 4-day proliferation assays using three different DLBCL cell lines.
(§2) Cells should be kept between 0.5-2.5 million cells per mL during culturing and cells should be supplemented every 2-3 days with fresh 50 μM beta-mercaptoenthanol. No beta-mercaptoethanol is used during the proliferation assay. OCI-Ly7 cells were propagated in IMDM (ThermoFisher) supplemented with 10% fetal bovine serum (HyClone), 2 mM L-glutamine (Sigma Aldrich) and 50 μg/mL Gentamycin. Cell passage numbers should not exceed 30 (for OCI-Ly3 cells with passage number lower than 10 were used).
(§3) 10,000 TMD8, 10,000 OCI-Ly3 or 2,000 OCI-Ly7 cells were seeded in 100 μL media per well and incubated for 4 days at 37° C. and 5% CO2. Cell plating numbers were chosen based on growth curves to ensure linear cell growth. After 4 days of incubation 50 μL CellTiterGLO reagent (Promega) were added to each well and luminescence was measured on the Envision after 10 min of incubation at room temperature.
(§4) LC=median of the low control values
(§5) An estimate of the slope of the plot in terms of the Hill coefficient was also obtained.

[2] = test system: IL10 secretion by TMD8 ABC-DLBCL cells; assay: Human IL10 Mesoscale assay (TMD-8); assay type: cell-based; conditions: Homo sapiens, TMD8; TMD-8 cells, 24 h
Procedure, shortened: (§6)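 TMD8 or OCI-LY3 cells (100,000/well) were exposed to compounds in 9 twofold dilutions from 15 μM to 58.6 nM (0.3% DMSO) for 24 h at 37 °C. Supernatant IL6 and IL10 were quantified by MSD electrochemiluminescence immunoassay. DMSO defined maximum signal and BTK inhibitor RN486 (30 nM–131 pM) defined maximum inhibition.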

[3] = test system: IL6 secretion by TMD8 ABC-DLBCL cells; assay: Human IL6 Mesoscale assay (TMD-8); assay type: cell-based; conditions: Homo sapiens, TMD8; TMD-8 cells, 24 h
Procedure, shortened: as §6

[4] = molecular target: full-length MALT1 protein (Strep-MALT1(1-824)-His) (Homo sapiens (Human), UniProt Q9UDY8); assay: MALT1 Biochemical Protease Assay (Ac-LRSR-AMC substrate); conditions: 10 nM FL MALT1, 200 μM Ac-LRSR-AMC, 4 h at RT; read-out: MALT1_Biochemical activity (Ac-LRSR-amc) IC50
Procedure, shortened: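 Full-length MALT1 pre-incubated with compounds (30 μM to 0.5 nM, 11 threefold steps) for 50 min at RT. After Ac-LRSR-AMC was added, the reaction ran 4 h at RT and AMC fluorescence was read. IC50 and Hill slope from curve fitting against no-enzyme and no-compound controls.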

[5] = test system: TMD8 cells; assay: 4-day proliferation assay, TMD8; assay type: cell-based; conditions: Homo sapiens, 96 h, 4 days incubation, CellTiterGLO, read-out: Anti-proliferation: TMD-8 IC50
Protocol: as §1, §2, §3, §4, §5

Sequence of full-length MALT1 protein (Strep-MALT1(1-824)-His) (Q9UDY8 whole entry): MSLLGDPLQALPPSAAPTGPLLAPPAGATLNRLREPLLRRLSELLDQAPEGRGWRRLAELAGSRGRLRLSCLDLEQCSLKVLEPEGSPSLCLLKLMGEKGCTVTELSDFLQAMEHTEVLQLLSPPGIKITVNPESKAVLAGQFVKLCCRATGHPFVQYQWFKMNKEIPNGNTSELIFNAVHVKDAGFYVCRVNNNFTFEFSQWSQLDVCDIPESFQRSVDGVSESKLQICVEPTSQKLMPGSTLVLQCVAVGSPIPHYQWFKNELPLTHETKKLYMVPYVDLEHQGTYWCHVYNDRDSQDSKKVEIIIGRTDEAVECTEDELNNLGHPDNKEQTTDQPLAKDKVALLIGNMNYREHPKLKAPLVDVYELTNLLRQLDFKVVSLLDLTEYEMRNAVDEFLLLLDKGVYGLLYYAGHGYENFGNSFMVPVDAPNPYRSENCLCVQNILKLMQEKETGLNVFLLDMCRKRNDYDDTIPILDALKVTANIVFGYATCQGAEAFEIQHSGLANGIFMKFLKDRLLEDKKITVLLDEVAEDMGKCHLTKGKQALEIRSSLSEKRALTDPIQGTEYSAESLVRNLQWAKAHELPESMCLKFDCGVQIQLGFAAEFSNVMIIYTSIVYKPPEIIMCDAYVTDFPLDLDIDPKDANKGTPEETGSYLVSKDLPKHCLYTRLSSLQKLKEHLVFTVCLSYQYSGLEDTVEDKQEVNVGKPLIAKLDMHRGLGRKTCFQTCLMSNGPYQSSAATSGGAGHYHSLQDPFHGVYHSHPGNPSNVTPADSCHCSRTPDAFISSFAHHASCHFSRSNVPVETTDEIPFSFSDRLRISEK

Cn1ccc(-c2ncc(NC(=O)c3cnn(-c4cncc5ccccc45)c3C(F)(F)F)cc2C#N)n1 [Cpd 78, N-(5-cyano-6-(1-methyl-1H-pyrazol-3-yl)pyridin-3-yl)-1-(isoquinolin-4-yl)-5-(trifluoromethyl)-1H-pyrazole-4-carboxamide] gave an IC50 [1] of about 490 nM, an IC50 [2] of 112 nM and an IC50 [3] of 81 nM. The IC50 [4] was 55 nM and the IC50 [5] was 7590 nM.

O=C(Nc1cnc(OC2CC2)c(Cl)c1)c1cnn(-c2cccc3ncccc23)c1C(F)(F)F [Cpd 79, N-(5-Chloro-6-cyclopropoxypyridin-3-yl)-1-(quinolin-5-yl)-5-(trifluoromethyl)-1H-pyrazole-4-carboxamide] gave an IC50 [1] of about 2340 nM, an IC50 [2] of 251 nM and an IC50 [3] of about 340 nM. The IC50 [4] was 98 nM and the IC50 [5] was 8320 nM.

Work on CCOc1ncc(NC(=O)c2cnn(-c3cccc4ncccc34)c2C(F)(F)F)cc1C#N [Cpd 81, N-(5-cyano-6-ethoxypyridin-3-yl)-1-(quinolin-5-yl)-5-(trifluoromethyl)-1H-pyrazole-4-carboxamide] yielded an IC50 [1] of about 1350 nM, an IC50 [2] of 138 nM and an IC50 [3] of 135 nM. For the same compound, the IC50 [4] was 123 nM and the IC50 [5] was 11500 nM.

For N#Cc1cncc(NC(=O)c2cnn(-c3cncc4ccccc34)c2C(F)(F)F)c1 [Cpd 82, N-(5-cyanopyridin-3-yl)-1-(isoquinolin-4-yl)-5-(trifluoromethyl)-1H-pyrazole-4-carboxamide], the IC50 [1] was about 1580 nM, the IC50 [2] was 295 nM and the IC50 [3] was 240 nM. It also gave an IC50 [4] of 676 nM and an IC50 [5] of 6310 nM.

For N#Cc1cc(NC(=O)c2cnn(-c3cccc4ncccc34)c2C(F)(F)F)cnc1-n1nccn1 [Cpd 83, N-(5-cyano-6-(2H-1,2,3-triazol-2-yl)pyridin-3-yl)-1-(quinolin-5-yl)-5-(trifluoromethyl)-1H-pyrazole-4-carboxamide], the IC50 [1] was 510 nM, the IC50 [2] was 43 nM and the IC50 [3] was 32 nM. It also gave an IC50 [4] of 34 nM and an IC50 [5] of about 8320 nM.

N#Cc1cc(NC(=O)c2cnn(-c3cncc4ccccc34)c2C(F)(F)F)cnc1OCCCCN [Cpd 84, N-(6-(4-aminobutoxy)-5-cyanopyridin-3-yl)-1-(isoquinolin-4-yl)-5-(trifluoromethyl)-1H-pyrazole-4-carboxamide] showed an IC50 [1] of 1700 nM, an IC50 [2] of 355 nM and an IC50 [3] of 148 nM. It also gave an IC50 [4] of 214 nM and an IC50 [5] of over 20000 nM.

Work on COc1ncc(NC(=O)c2cnn(-c3cccc4ncccc34)c2C(F)(F)F)cc1C#N [Cpd 85, N-(5-cyano-6-methoxypyridin-3-yl)-1-(quinolin-5-yl)-5-(trifluoromethyl)-1H-pyrazole-4-carboxamide] yielded an IC50 [1] of 1660 nM, an IC50 [2] of 120 nM and an IC50 [3] of 95 nM. For the same compound, the IC50 [4] was 132 nM and the IC50 [5] was over 20000 nM.

Compound N#Cc1cc(NC(=O)c2cnn(-c3cccc4ncccc34)c2C(F)(F)F)cnc1-n1cncn1 [Cpd 86, N-(5-cyano-6-(1H-1,2,4-triazol-1-yl)pyridin-3-yl)-1-(quinolin-5-yl)-5-(trifluoromethyl)-1H-pyrazole-4-carboxamide] has an IC50 [1] of 780 nM, an IC50 [2] of 148 nM and an IC50 [3] of 37 nM. For the same compound, the IC50 [4] was 71 nM and the IC50 [5] was about 11200 nM.

Compound O=C1COc2c(Cl)cc(NC(=O)c3cnn(-c4cncc5ccccc45)c3C(F)(F)F)cc2N1 [Cpd 87, N-(8-Chloro-3-oxo-3,4-dihydro-2H-benzo[b][1,4]oxazin-6-yl)-1-(isoquinolin-4-yl)-5-(trifluoromethyl)-1H-pyrazole-4-carboxamide] has an IC50 [1] of 1700 nM, an IC50 [2] of 324 nM and an IC50 [3] of 251 nM. It also gave an IC50 [4] of 141 nM and an IC50 [5] of about 13800 nM.

Work on N#Cc1cc(NC(=O)c2cnn(-c3cccc4ncccc34)c2C(F)(F)F)cnc1OC1CC1 [Cpd 88, N-(5-cyano-6-cyclopropoxypyridin-3-yl)-1-(quinolin-5-yl)-5-(trifluoromethyl)-1H-pyrazole-4-carboxamide] yielded an IC50 [1] of 1350 nM, an IC50 [2] of 209 nM and an IC50 [3] of 331 nM. The IC50 [4] was 107 nM and the IC50 [5] was about 12000 nM.

With Cn1ccc(-c2ncc(NC(=O)c3cnn(-c4cccc5ncccc45)c3C(F)(F)F)cc2C#N)n1 [Cpd 89, N-(5-cyano-6-(1-methyl-1H-pyrazol-3-yl)pyridin-3-yl)-1-(quinolin-5-yl)-5-(trifluoromethyl)-1H-pyrazole-4-carboxamide] the IC50 [1] was 740 nM, the IC50 [2] was 95 nM and the IC50 [3] was 74 nM. The IC50 [4] was 41 nM and the IC50 [5] was over 20000 nM.

N#Cc1cc(NC(=O)c2cnn(-c3nccc4sccc34)c2C(F)(F)F)cnc1-n1nccn1 [Cpd 90, N-(5-cyano-6-(2H-1,2,3-triazol-2-yl)pyridin-3-yl)-1-(thieno[3,2-c]pyridin-4-yl)-5-(trifluoromethyl)-1H-pyrazole-4-carboxamide] showed an IC50 [1] of 520 nM, an IC50 [2] of 135 nM and an IC50 [3] of 98 nM. For the same compound, the IC50 [4] was 21 nM and the IC50 [5] was about 3890 nM.

Compound CN1C(=O)COc2c(Cl)cc(NC(=O)c3cnn(-c4cccc5ncccc45)c3C(F)(F)F)cc21 [Cpd 95, N-(8-Chloro-4-methyl-3-oxo-3,4-dihydro-2H-benzo[b][1,4]oxazin-6-yl)-1-(quinolin-5-yl)-5-(trifluoromethyl)-1H-pyrazole-4-carboxamide] has an IC50 [1] of 3800 nM, an IC50 [2] of 302 nM and an IC50 [3] of 646 nM. For the same compound, the IC50 [4] was 117 nM and the IC50 [5] was about 7940 nM.

CN1CCN(C(=O)c2ncc(NC(=O)c3cnn(-c4cncc5ccccc45)c3C(F)(F)F)cc2C#N)CC1 [Cpd 96, N-(5-cyano-6-(4-methylpiperazine-1-carbonyl)pyridin-3-yl)-1-(isoquinolin-4-yl)-5-(trifluoromethyl)-1H-pyrazole-4-carboxamide] showed an IC50 [1] of 7080 nM, an IC50 [2] of 676 nM and an IC50 [3] of 1050 nM. For the same compound, the IC50 [4] was 759 nM and the IC50 [5] was about 15500 nM.

CN1C(=O)COc2c(Cl)cc(NC(=O)c3cnn(-c4cncc5ccccc45)c3C(F)(F)F)cc21 [Cpd 97, N-(8-chloro-4-methyl-3-oxo-3,4-dihydro-2H-benzo[b][1,4]oxazin-6-yl)-1-(isoquinolin-4-yl)-5-(trifluoromethyl)-1H-pyrazole-4-carboxamide] showed an IC50 [1] of 3470 nM, an IC50 [2] of 257 nM and an IC50 [3] of 575 nM. The IC50 [4] was 209 nM and the IC50 [5] was about 5890 nM.

In the case of Cn1ccnc1-c1ncc(NC(=O)c2cnn(-c3cncc4ccccc34)c2C(F)(F)F)cc1Cl [Cpd 98, N-(5-chloro-6-(1-methyl-1H-imidazol-2-yl)pyridin-3-yl)-1-(isoquinolin-4-yl)-5-(trifluoromethyl)-1H-pyrazole-4-carboxamide], the IC50 [1] is reported as 5750 nM, the IC50 [2] is reported as 417 nM and the IC50 [3] is reported as 468 nM. It also gave an IC50 [4] of 200 nM and an IC50 [5] of about 11000 nM.

Compound N#Cc1cc(NC(=O)c2cnn(-c3nccc4ccoc34)c2C(F)(F)F)cnc1-n1nccn1 [Cpd 99, N-(5-cyano-6-(2H-1,2,3-triazol-2-yl)pyridin-3-yl)-1-(furo[2,3-c]pyridin-7-yl)-5-(trifluoromethyl)-1H-pyrazole-4-carboxamide] has an IC50 [1] of 650 nM, an IC50 [2] of 47 nM and an IC50 [3] of 68 nM. For the same compound, the IC50 [4] was 11 nM and the IC50 [5] was about 3240 nM.

For N#Cc1cc(NC(=O)c2cnn(-c3nccc4ncccc34)c2C(F)(F)F)cnc1-n1nccn1 [Cpd 100, N-(5-cyano-6-(2H-1,2,3-triazol-2-yl)pyridin-3-yl)-1-(1,6-naphthyridin-5-yl)-5-(trifluoromethyl)-1H-pyrazole-4-carboxamide], the IC50 [1] was 1950 nM, the IC50 [2] was 155 nM and the IC50 [3] was 251 nM. The IC50 [4] was 37 nM and the IC50 [5] was about 5250 nM.

In the case of COC(=O)c1cnn(-c2ncc(NC(=O)c3cnn(-c4cccc5ncccc45)c3C(F)(F)F)cc2Cl)n1 [Cpd 108, Methyl 2-(3-chloro-5-(1-(quinolin-5-yl)-5-(trifluoromethyl)-1H-pyrazole-4-carboxamido)pyridin-2-yl)-2H-1,2,3-triazole-4-carboxylate], the IC50 [1] is reported as 1120 nM, the IC50 [2] is reported as over 302 nM and the IC50 [3] is reported as over 302 nM. It also gave an IC50 [4] of 23 nM and an IC50 [5] of 1660 nM.

O=C(Nc1cnc(-n2nccn2)c(Cl)c1)c1cnn(-c2cccc3nnsc23)c1C(F)(F)F [Cpd 120, 1-(benzo[d][1,2,3]thiadiazol-7-yl)-N-(5-chloro-6-(2H-1,2,3-triazol-2-yl)pyridin-3-yl)-5-(trifluoromethyl)-1H-pyrazole-4-carboxamide] was tested, and the IC50 [1] was 325 nM, the IC50 [2] was 85 nM and the IC50 [3] was 102 nM. The IC50 [4] was 30 nM and the IC50 [5] was 1950 nM.
